# Key:
# [1] = tested on: Murine erythroleukemia cells (MEL); assay: HMBA-induced differentiation and growth of erythroleukemic cells; format: cell-based, mouse; settings: day 3 (Table 2)
# Protocol: Mouse erythroleukemic cells (MEL): MEL cells are erythroblast like cells. Following treatment with several chemicals (differentiation inducers) the cells undergo erythroid differentiation and accumulate hemoglobin. […] At day 3 of the culture, the total number of cells and the percentage of hemoglobin-containing cells were determined (Table 2).
# On day 3, total cell number and hemoglobin containing (benzidine positive) cells were determined.
# [2] = tested on: lethally irradiated Balb/c×C57B1/6 F1 mice; assay: Hematopoietic reconstitution of lethally irradiated mice with ex-vivo expanded bone marrow cells; format: in vivo; settings: compared to fresh cells or cells expanded without TEPA
# Protocol: Hematopoietic reconstitution of lethally irradiated mice—fresh vs. ex-vivo expanded cells: Three month old female Balb/c×C57B1/6 F1 mice were lethally irradiated (1000 rad) and transplanted one day later with 1×10^5 fresh bone marrow cells or the yield of 1×10^5 bone marrow cells expanded ex-vivo either with or without TEPA for 3 to 5 weeks, as detailed in Table 7. Peripheral blood WBC counts were performed on weekly basis.
# Hepatocytes = assay: Ex-vivo expansion of hepatocytes; format: cell-based, BALB/c mice; settings: 15 μg/ml TEPA, five weeks (FIGS. 27a-d)
# Protocol: Hepatocytes: Livers were dissected from anesthetized BALB/c mice with sterile tools and immersed into F12 culture medium (Biological Industries, Kibbutz Bet Ha'Emek, Israel). The livers were washed three times with 3% BSA/PBS buffer and minced into small pieces with seizures. Following three washes with 3% BSA/PBS the liver tissue pieces were incubated for 30 minutes with 0.05% collagenase at 37° C. with continues shaking under 5% CO2 atmosphere. The digested liver tissue pieces were than mashed by pressing through a fine mesh strainer. After three washes with 3% BSA/PBS the liver cells were seeded into F12 culture medium enriched with: 15 mM HEPES buffer, […], 10 mM sodium bicarbonate, 0.5 u/ml insulin, 7.5 ng/ml hydrocortisone and with or without 15 μg/ml of TEPA and incubated at 37° C. in a 5% CO2 atmosphere. After overnight incubation the medium was removed and the cells were supplemented with fresh enriched F12 medium as described above with or without 15 μg/ml of TEPA. Hepatocytes were incubated in 35 mm dishes for several weeks with enriched F12 culture medium with or without 15 μg/ml TEPA at 37° C. under 5% CO2 atmosphere. Cell culture medium was replaced every week with a fresh medium.
# [3] = tested on: Cord blood-derived CD34 cells; assay: Short-term liquid culture of CD34 cells: cell number, CD34 cells, colony forming cells; format: cell-based, human
# Protocol: The interphase layer of mononuclear cells were collected, washed three times with Ca/Mg free phosphate buffered saline containing 1% bovine serum albumin (BSA). The cells were incubated for 30 min. at 4° C. with murine monoclonal anti CD34 antibody (0.5 μg/10^6 mononuclear cells) and thereafter isolated using the miniMACS apparatus (Miltenyi-Biotec, Bergisch, Gladbach, Germany) according to the manufacturer's protocol.
# (§1) Culture procedures: For the expansion of progenitor cells, CD34^+ enriched fractions or unseparated mononuclear cells were seeded at about 1-3×10^4 cells/ml in either alpha minimal essential medium containing 10% preselected fetal calf serum (FCS) (both from GIBCO, Grand Island, N.Y.), or serum-free medium (Progenitor-34 medium, Life Technologies, Grand Island, N.Y.). The media were supplemented with a mixture of growth factors and transition metal chelators. The cultures were incubated at 37° C. in an atmosphere of 5% CO2 in air with extra humidity. Half of the medium was changed weekly with fresh medium containing all the supplements.
# (§2) Cloning potential evaluations: The cloning potential of cells developed in the liquid culture was assayed, at different intervals, in semi-solid medium. The cells were washed and seeded in 35 mm dishes in methylcellulose containing alpha medium supplemented with recombinant growth factors (SCF, G-CSF, GM-CSF and EPO). Following 2 weeks incubation, the cultures were scored with an inverted microscope. Colonies were classified as blast, mixed, erythroid, myeloid, and megakaryocytic, according to their cellular composition.
# Immunofluorescence staining: At different intervals, cells from the liquid cultures were assayed for CD34 antigen. Aliquots were harvested, washed and incubated on ice with FITC-labeled anti CD45 monoclonal antibody and either PE-labeled anti CD34 (HPCA-2) monoclonal antibody or PE-labeled control mouse Ig. After incubation, red cells were lysed with lysing solution, while the remaining cells were washed and analyzed by flow cytometer.
# Flow cytometry: Cells were analyzed and sorted using FACStarPlus flow cytometer (Becton-Dickinson, Immunofluorometry systems, Mountain View, Calif.). Cells were passed at a rate of 1,000 cells/second through a […] nozzle, using saline as the sheath fluid. A 488 nm argon laser beam at 250 mW served as the light source for excitation. […] The PMTs was set at the appropriate voltage. Logarithmic amplification was applied for measurements of fluorescence and linear amplification—for forward light scatter. At least 10^4 cells were analyzed.
# Cord blood-derived CD34 cells were plated in liquid culture in the presence of: FL—50 ng/ml, SCF—50 ng/ml, IL-6—50 ng/ml, with or without IL-3—20 ng/ml, with or without TEPA—10 μM. On day 7, the percentage of CD34 cells and the total cell number were determined. Aliquots equivalent to 1×10^3 initiating cells were assayed on days 0 and 7 for colony forming cells (CFU) by cloning in semi-solid medium. CFU expansion represents the ratio of CFU present on day 7 to CFU present on day 0.
# [4] = tested on: Cord blood-derived CD34 cells; assay: Long-term liquid culture of CD34 cells: proliferation, CFUc, differentiation status; format: cell-based, human
# Protocol: as §1, §2
# Morphological assessment: In order to characterize the resulting culture populations, aliquots of cells were deposited on a glass slide (cytocentrifuge, Shandon, Runcorn, UK), fixed and stained in May-Grunwald Giemsa. Other aliquots were stained by benzidine for intracellular hemoglobin.
# TEPA effects on proliferation and clonability of long-term CD34^+ cultures: Long-term cultures were maintained for 3-5 weeks by weekly demi-depopulation (one half of the culture volume was removed and replaced by fresh medium and cytokines).
# CD34^+ cells derived from human neonatal cord blood were purified by immunomagnetic method and then cultured in liquid medium supplemented with cytokines either with or without transition metal chelators. At weekly intervals, the cultures were demi-depopulated by removing half of the culture content (supernatant and cells) and replacing it with fresh medium, cytokines and the chelators. At the indicated weeks the cellular content of the cultures were quantified for total cells (by a manual microscopic/hemocytometric method), for CD34^+ cells (by immuno-flow cytometry) and for clonogenic cells (by cloning the cells in cytokine-supplemented semi-solid medium). The cultures were initiated with 1×10^4 cells, 50-80% of which were CD34^+ and 25-50% of which were CFUc. The results presented in FIGS. 11 to 24 were calculated per 1×10^4 initiating cells (the numbers were multiplied by the dilution factors).
# [5] = high doses of early cytokines or early- and late-acting cytokines (Table 1, FIG. 3)
compound,measurement,setting,value
"NCCNCCNCCNCCN [TEPA, tetraethylenepentamine]",HMBA-induced differentiation of MEL cells,[1],inhibited
same,WBC recovery,[2],faster
same,state of hepatocytes cultures,Hepatocytes,contained many dividing and undifferentiated cells
same,Cells/ml (×10^4),"[3]; TEPA 10 μM, without IL-3, FL, SCF, IL-6 50 ng/ml each, day 7",2 ×10^4 cells/ml
same,total cell number,[3]; cultures supplemented with both early and late cytokines (FIG. 3),marginal inhibition
same,clonability,[3]; [5],significantly increased
same,percentage of CD34^+ cells,[3]; [5],significantly increased
same,cell clonability,"[3]; low doses of early-acting cytokines, colonies in semi-solid medium (FIG. 1)",significant increase
same,total cell number,"[3]; low doses of early-acting cytokines, compared to cytokines only (FIG. 2)",significant increase
same,number of CD34^+ cells,"[3]; low doses of early-acting cytokines, flow cytometry (FIG. 2)",significant increase
same,activity on differentiation of CD34^+ cells,[4],inhibit differentiation
same,clonability in long-term cultures,"[4]; 3-5 weeks, early or early and late cytokines, compared to cytokines only (FIGS. 3, 4)",higher clonability
same,differentiation stimulatory effect of G-CSF and GM-CSF,"[4]; G-CSF and GM-CSF 10 ng/ml each, CFUc frequency (FIG. 15)",blocked
same,CFUc in culture upon termination,"[4]; after 6 weeks, started with 2.5×10^3 CFUc, TEPA 10 μM",300×10^3 CFUc
same,time cultures could be maintained,"[4]; early-acting cytokines, no stromal cells, TEPA 10 μM (FIG. 11)",> 6 weeks
same,effectiveness among polyamine chelating agents,[4]; long term cultures (FIGS. 21a-b),more effective than the short-chain polyamines
same,cell proliferation and generation of CFUc in long-term cultures,"[4]; long-term cultures (FIGS. 21, 22)",support continuous cell proliferation and long-term generation of CFUc and to delay cell differentiation
same,concentrations with optimal activity,"[4]; polyamine chelating agents, weeks 3, 4, 6, 7 (FIGS. 21a-b)",40 µM
same,concentrations with optimal activity,"[4]; transition metal chelating agents, weeks 4, 5, 7 (FIGS. 22a-b)",10 µM

# Source: US20020159981A1, “Methods of controlling proliferation and differentiation of stem and progenitor cells” (Gamida-Cell Ltd., priority 1999, published 2002)
